Test results reported in PubChem BioAssay (NCI).
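How tested: cells in 96-well plates exposed to compound for 48 hours at five concentrations. Definition used: TGI = concentration required for complete inhibition of growth.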

Legend:
Assay in all cases: growth of human tumour cells (NCI), 48 h
A498 renal = system: A498 renal
OVCAR-5 ovarian = system: OVCAR-5 ovarian
UACC-62 melanoma = system: UACC-62 melanoma
SF-539 CNS = system: SF-539 CNS
K-562 leukemia = system: K-562 leukemia
SK-MEL-5 melanoma = system: SK-MEL-5 melanoma
HCT-116 colon = system: HCT-116 colon
COLO 205 colon = system: COLO 205 colon
DMS 273 small cell lung = system: DMS 273 small cell lung
DLD-1 colon = system: DLD-1 colon
LXFL 529 NSCLC = system: LXFL 529 NSCLC
HL-60(TB) leukemia = system: HL-60(TB) leukemia
HCT-15 colon = system: HCT-15 colon
KM20L2 colon = system: KM20L2 colon
EKVX NSCLC = system: EKVX NSCLC
HOP-18 NSCLC = system: HOP-18 NSCLC
UACC-257 melanoma = system: UACC-257 melanoma
SNB-75 CNS = system: SNB-75 CNS
HOP-62 NSCLC = system: HOP-62 NSCLC
OVCAR-8 ovarian = system: OVCAR-8 ovarian
HOP-92 NSCLC = system: HOP-92 NSCLC
CCRF-CEM leukemia = system: CCRF-CEM leukemia
SK-MEL-28 melanoma = system: SK-MEL-28 melanoma
SW-620 colon = system: SW-620 colon
TK-10 renal = system: TK-10 renal
ACHN renal = system: ACHN renal
U251 CNS = system: U251 CNS
A549 NSCLC = system: A549 NSCLC
NCI-H522 lung = system: NCI-H522 lung
NCI-H460 lung = system: NCI-H460 lung
SK-MEL-2 melanoma = system: SK-MEL-2 melanoma
SN12C renal = system: SN12C renal
HCC-2998 colon = system: HCC-2998 colon
HT29 colon = system: HT29 colon
SNB-19 CNS = system: SNB-19 CNS
OVCAR-3 ovarian = system: OVCAR-3 ovarian
CAKI-1 renal = system: CAKI-1 renal
M14 melanoma = system: M14 melanoma
LOX IMVI melanoma = system: LOX IMVI melanoma
M19-MEL melanoma = system: M19-MEL melanoma
MOLT-4 leukemia = system: MOLT-4 leukemia
SF-295 CNS = system: SF-295 CNS
SF-268 CNS = system: SF-268 CNS
SNB-78 CNS = system: SNB-78 CNS
NCI-H23 lung = system: NCI-H23 lung
MALME-3M melanoma = system: MALME-3M melanoma
DMS 114 small cell lung = system: DMS 114 small cell lung
RPMI-8226 leukemia = system: RPMI-8226 leukemia
IGROV1 ovarian = system: IGROV1 ovarian
SK-OV-3 ovarian = system: SK-OV-3 ovarian
NCI-H226 lung = system: NCI-H226 lung
786-0 renal = system: 786-0 renal
UO-31 renal = system: UO-31 renal
OVCAR-4 ovarian = system: OVCAR-4 ovarian
KM12 colon = system: KM12 colon
RXF 393 renal = system: RXF 393 renal
XF 498 CNS = system: XF 498 CNS
SR leukemia = system: SR leukemia

COS(=O)(=O)OCCC(NC(=O)OCc1ccccc1)C(=O)OCc1ccccc1 (configuration not stated)
TGI (A498 renal): > 100 µM | TGI (OVCAR-5 ovarian): > 100 µM | TGI (UACC-62 melanoma): > 100 µM | TGI (SF-539 CNS): > 100 µM | TGI (K-562 leukemia): > 100 µM | TGI (SK-MEL-5 melanoma): > 100 µM | TGI (HCT-116 colon): > 100 µM | TGI (COLO 205 colon): > 100 µM | TGI (DMS 273 small cell lung): > 100 µM | TGI (DLD-1 colon): > 100 µM | TGI (LXFL 529 NSCLC): > 100 µM | TGI (HL-60(TB) leukemia): > 100 µM | TGI (HCT-15 colon): > 100 µM | TGI (KM20L2 colon): > 100 µM | TGI (EKVX NSCLC): > 100 µM | TGI (HOP-18 NSCLC): > 100 µM | TGI (UACC-257 melanoma): > 100 µM | TGI (SNB-75 CNS): > 100 µM | TGI (HOP-62 NSCLC): > 100 µM | TGI (OVCAR-8 ovarian): > 100 µM | TGI (HOP-92 NSCLC): > 100 µM | TGI (CCRF-CEM leukemia): > 100 µM | TGI (SK-MEL-28 melanoma): > 100 µM | TGI (SW-620 colon): > 100 µM | TGI (TK-10 renal): > 100 µM | TGI (ACHN renal): > 100 µM | TGI (U251 CNS): > 100 µM | TGI (A549 NSCLC): > 100 µM | TGI (NCI-H522 lung): > 100 µM | TGI (NCI-H460 lung): > 100 µM | TGI (SK-MEL-2 melanoma): > 100 µM | TGI (SN12C renal): > 100 µM | TGI (HCC-2998 colon): > 100 µM | TGI (HT29 colon): > 100 µM | TGI (SNB-19 CNS): > 100 µM | TGI (OVCAR-3 ovarian): > 100 µM | TGI (CAKI-1 renal): > 100 µM | TGI (M14 melanoma): > 100 µM | TGI (LOX IMVI melanoma): > 100 µM | TGI (M19-MEL melanoma): > 100 µM | TGI (MOLT-4 leukemia): > 100 µM | TGI (SF-295 CNS): > 100 µM | TGI (SF-268 CNS): > 100 µM | TGI (SNB-78 CNS): > 100 µM | TGI (NCI-H23 lung): > 100 µM | TGI (MALME-3M melanoma): > 100 µM | TGI (DMS 114 small cell lung): > 100 µM | TGI (RPMI-8226 leukemia): > 100 µM | TGI (IGROV1 ovarian): > 100 µM | TGI (SK-OV-3 ovarian): > 100 µM | TGI (NCI-H226 lung): > 100 µM | TGI (786-0 renal): > 100 µM | TGI (UO-31 renal): > 100 µM | TGI (OVCAR-4 ovarian): > 100 µM | TGI (KM12 colon): > 100 µM

O=c1c2c([nH]c3cc4c(cc13)OCO4)-c1ccccc1C2
TGI (UACC-62 melanoma): 32.3 µM | TGI (SF-539 CNS): 34.7 µM | TGI (K-562 leukemia): > 100 µM | TGI (SK-MEL-5 melanoma): 29.6 µM | TGI (RXF 393 renal): 34.2 µM | TGI (HCT-116 colon): 37.4 µM | TGI (COLO 205 colon): 31.5 µM | TGI (DMS 273 small cell lung): 42.3 µM | TGI (DLD-1 colon): 58.7 µM | TGI (LXFL 529 NSCLC): 63.7 µM | TGI (HL-60(TB) leukemia): 70.1 µM | TGI (HCT-15 colon): > 100 µM | TGI (KM20L2 colon): 36.7 µM | TGI (EKVX NSCLC): > 100 µM | TGI (HOP-18 NSCLC): 68.1 µM | TGI (XF 498 CNS): 49.4 µM | TGI (HOP-62 NSCLC): 52.4 µM | TGI (OVCAR-8 ovarian): > 100 µM | TGI (HOP-92 NSCLC): 56.3 µM | TGI (CCRF-CEM leukemia): 71.4 µM | TGI (SK-MEL-28 melanoma): 59.9 µM | TGI (SW-620 colon): > 100 µM | TGI (TK-10 renal): 78.5 µM | TGI (ACHN renal): 53.8 µM | TGI (U251 CNS): 35.6 µM | TGI (A549 NSCLC): > 100 µM | TGI (NCI-H522 lung): 55.5 µM | TGI (NCI-H460 lung): 63.9 µM | TGI (SK-MEL-2 melanoma): 28.9 µM | TGI (SN12C renal): 84.6 µM | TGI (HCC-2998 colon): 84.1 µM | TGI (HT29 colon): 33 µM | TGI (SNB-19 CNS): > 100 µM | TGI (OVCAR-3 ovarian): 51.6 µM | TGI (CAKI-1 renal): > 100 µM | TGI (M14 melanoma): 46.5 µM | TGI (LOX IMVI melanoma): 31.7 µM | TGI (MOLT-4 leukemia): 82 µM | TGI (SF-295 CNS): 84.8 µM | TGI (SF-268 CNS): > 100 µM | TGI (SNB-78 CNS): > 100 µM | TGI (NCI-H23 lung): 67.5 µM | TGI (MALME-3M melanoma): 62.9 µM | TGI (RPMI-8226 leukemia): 48.2 µM | TGI (SR leukemia): 56.1 µM | TGI (IGROV1 ovarian): 49.7 µM | TGI (SK-OV-3 ovarian): > 100 µM | TGI (NCI-H226 lung): 86.7 µM | TGI (786-0 renal): > 100 µM | TGI (UO-31 renal): 86.1 µM | TGI (OVCAR-4 ovarian): > 100 µM | TGI (KM12 colon): 42.8 µM
